Read-outs that look alike come from different tables or passages of the source.

Data set [1] has as its target T1, human NTPDase2 (Homo sapiens, UniProt Q9Y5L3).
T1 construct: made in house; host or cells: COS-7 cells
T1 sequence (Q9Y5L3 1-495): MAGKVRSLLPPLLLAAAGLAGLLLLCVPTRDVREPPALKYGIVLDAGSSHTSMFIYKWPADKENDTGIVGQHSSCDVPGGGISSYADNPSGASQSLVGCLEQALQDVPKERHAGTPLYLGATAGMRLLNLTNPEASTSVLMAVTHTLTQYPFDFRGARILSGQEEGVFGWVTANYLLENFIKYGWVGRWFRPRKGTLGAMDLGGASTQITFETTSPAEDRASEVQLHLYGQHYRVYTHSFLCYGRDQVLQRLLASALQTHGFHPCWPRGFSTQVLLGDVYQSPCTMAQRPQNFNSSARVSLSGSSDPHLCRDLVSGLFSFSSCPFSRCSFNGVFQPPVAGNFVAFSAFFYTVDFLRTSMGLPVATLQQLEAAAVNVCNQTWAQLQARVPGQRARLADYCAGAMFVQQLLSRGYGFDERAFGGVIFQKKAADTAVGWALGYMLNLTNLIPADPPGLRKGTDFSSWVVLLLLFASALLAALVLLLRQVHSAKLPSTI
Briefly: NTPDase CE-based assay, NTPDase2. It is filed as biochemical. The conditions noted are these: 20 µg/mL (12 µM); read-out: NTPDase2 inhibition, selectivity study. The procedure:
For monitoring the activity of human NTPDases (subtypes 1, 2, 3 and 8) in the presence of test compounds, a CE-based assay system was used, according to a published procedure ([11], [25]). The following concentrations of test compounds were investigated in initial screening studies: 63 IU/mL of compounds 1 and 2, 30 µM of compound 6. For selectivity studies, the following concentration were employed: 50 IU/mL of 1, 12 µM of 6, and 48 µM of 7. The amount of enzyme was selected according to previously performed enzymatic titration, and adjusted to ensure a 10–20% conversion rate. Enzymes were obtained by transfection of COS-7 cells using plasmids encoding human NTPDase1 (GenBank accession number U87967) ([26]), NTPDase2 (NM_203468) ([27]), a kind gift of Dr. A.F. Knowles (San Diego, CA), NTPDase3 (AF034840) ([28]), a kind gift of Dr. T.L. Kirley (Cincinnati, OH) and human NTPDase8 (AY430414) ([29]) and purified as previously described ([30], [31]). The reaction buffer consisted of 10 mM HEPES, 2 mM CaCl2, and 1 mM MgCl2, pH 7.4. In the CE assay, the selected substrate concentration (ATP) was 100 µM for all studied human NTPDases (-1, -2, -3 and -8). […] The released products were separated by CE and quantified by their UV-absorption at 260 nm with ADP and AMP as external standards, as previously described ([11]); positive and negative controls were included.

For data set [2] the following is noted: cited from earlier work.
In data set [3] the target is T2, human NPP1 (Homo sapiens, UniProt P22413).
T2 construct: human recombinant soluble NPP1 (Val191 - Leu591) expressed in murine myeloma NS0 cells; His-tag (N); purchased R&D Systems GmbH (Wiesbaden, Germany); host or cells: murine myeloma NS0 cells
T2 sequence (P22413 191-591): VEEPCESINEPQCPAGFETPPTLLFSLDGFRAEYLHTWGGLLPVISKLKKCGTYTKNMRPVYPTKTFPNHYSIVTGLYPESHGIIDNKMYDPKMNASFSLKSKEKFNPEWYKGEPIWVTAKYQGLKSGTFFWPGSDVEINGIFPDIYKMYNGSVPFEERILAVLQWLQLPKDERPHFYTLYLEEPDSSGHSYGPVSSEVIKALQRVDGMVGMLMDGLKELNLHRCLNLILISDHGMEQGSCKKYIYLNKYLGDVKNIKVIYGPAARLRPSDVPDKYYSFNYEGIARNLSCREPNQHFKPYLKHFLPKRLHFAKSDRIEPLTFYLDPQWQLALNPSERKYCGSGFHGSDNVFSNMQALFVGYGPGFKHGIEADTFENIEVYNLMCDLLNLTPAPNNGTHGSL
Briefly: NPP1 assay, capillary electrophoresis (CE)-based, ATP as substrate. The settings on record: for IC50: human NPP1, 400 µM ATP, CE assay. Format: biochemical. The procedure:
(§1) Concentration-inhibition curves of the test compounds at human NPP1 were performed with ATP as substrate at a final concentration of 400 μM. Several different dilutions of the test compounds were prepared in assay buffer (10 mM N-cyclohexyl-2-aminoethanesulfonic acid (CHES), 2 mM CaCl2, 1 mM MgCl2, pH 9.00) and incubated with 20 ng of human recombinant soluble NPP1 (Val191 - Leu591) expressed in murine myeloma NS0 cells obtained from R&D Systems GmbH (Wiesbaden, Germany, purity 95%, purified by using an N-terminal His-tag). For initial screening and selectivity analysis, NPP1 prepared as previously described ([20]), diluted in assay buffer, was used. The mixture of enzyme, substrate and test compound or buffer without test compound was incubated for 30 min at 37°C, and the reaction was terminated by heating at 90°C for 5 min. Capillary electrophoresis (CE) analysis was carried out to analyze the formation of the product. Data collection and peak area analysis were performed by the P/ACE MDQ software 32 KARAT obtained from Beckman Coulter (Fullerton, CA, USA). A polyacrylamide-coated capillary was used [30 cm (20 cm effective length) × 50 μm (id) × 360 μm (od) purchased from Chromatographie Service GmbH (Langerwehe, Germany)]. Samples were injected electro-kinetically by applying a voltage of -6 kV for 30 s. Finally, analytes were separated by applying a separation voltage of -20 kV, and detected by UV at 260 nm. The IC50 values were determined by nonlinear curve fitting using the GraphPad Prism Software 7.0. The mechanism of inhibition at human NPP1 was determined employing different concentrations of the investigated compounds 6 (at 0, 0.4, 4.0 µM), and 7 (at 0, 0.4 and 40 µM) versus four different substrate concentrations ranging from 50 to 500 μM of ATP. The assay procedure and operation conditions were the same as described above. The experiment was conducted twice, each in triplicates. A Lineweaver-Burk was calculated using GraphPad Prism 7.0 for predicting the inhibition type of the compound.

In data set [4] the test system is human NPP1. The data set is described as above. Format: biochemical. The method, then: as §1

As to `CO[C@H]1O[C@H](COS(=O)(=O)O)[C@@H](O[C@@H]2O[C@@H](C(=O)O)[C@@H](O[C@H]3O[C@H](COS(=O)(=O)O)[C@@H](O[C@@H]4O[C@H](C(=O)O)[C@@H](O[C@H]5O[C@H](COS(=O)(=O)O)[C@@H](O)[C@H](O)[C@H]5NS(=O)(=O)O)[C@H](O)[C@H]4O)[C@H](OS(=O)(=O)O)[C@H]3NS(=O)(=O)O)[C@H](O)[C@H]2OS(=O)(=O)O)[C@H](O)[C@H]1NS(=O)(=O)O` [Compound 6, Fondaparinux], in data set [1], the inhibition (commonly the drop in the measured response relative to a control, in per cent) at 12 µM is about 35%. Also, in data set [2], the half-life (in general, how long it takes for the measured level to halve) was 17 h. The “inhibition type at human NPP1” value in data set [3] (Lineweaver-Burk plots, ATP 50-500 µM) is recorded as “mixed-type”. The IC50 was 3.31 µM in data set [3] (read-out: IC50 ± SD (µg/ml) (converted)); 2.94 ± 0.61 µM in data set [3] (values of 1 and 2 estimated (1 IU = 0.002 mg; mean 16.5 kDa for heparin-sodium), read-out: IC50 ± SD). Moreover, the “NPP1 inhibition, selectivity study” value in data set [4] (20 µg/mL (12 µM)) was “full inhibition”. In addition, the “inhibition of human NPP1, initial screening” value in data set [4] (50 µg/mL (30 µM)) is recorded as “almost complete inhibition”.

(Values after publication PMC10497752, “Heparins are potent inhibitors of ectonucleotide pyrophosphatase/phospho-diesterase-1 (NPP1) – a promising target for the immunotherapy of cancer” (Frontiers in Immunology, 2023).)
